Experimental data: patent US20220280661A1, “GLUCOCORTICOID RECEPTOR RADIOLIGANDS AND METHODS FOR THEIR PREPARATION AND USE” (The Regents of the University of California, priority 2019, published 2022)

Molecular target: T1, GR (Mus musculus, UniProt P06537)
T1 construct: from tissue; host or cells: tissues of C57BL6/J mice (intact or adrenalectomized), in vivo
T1 sequence (P06537 1-792): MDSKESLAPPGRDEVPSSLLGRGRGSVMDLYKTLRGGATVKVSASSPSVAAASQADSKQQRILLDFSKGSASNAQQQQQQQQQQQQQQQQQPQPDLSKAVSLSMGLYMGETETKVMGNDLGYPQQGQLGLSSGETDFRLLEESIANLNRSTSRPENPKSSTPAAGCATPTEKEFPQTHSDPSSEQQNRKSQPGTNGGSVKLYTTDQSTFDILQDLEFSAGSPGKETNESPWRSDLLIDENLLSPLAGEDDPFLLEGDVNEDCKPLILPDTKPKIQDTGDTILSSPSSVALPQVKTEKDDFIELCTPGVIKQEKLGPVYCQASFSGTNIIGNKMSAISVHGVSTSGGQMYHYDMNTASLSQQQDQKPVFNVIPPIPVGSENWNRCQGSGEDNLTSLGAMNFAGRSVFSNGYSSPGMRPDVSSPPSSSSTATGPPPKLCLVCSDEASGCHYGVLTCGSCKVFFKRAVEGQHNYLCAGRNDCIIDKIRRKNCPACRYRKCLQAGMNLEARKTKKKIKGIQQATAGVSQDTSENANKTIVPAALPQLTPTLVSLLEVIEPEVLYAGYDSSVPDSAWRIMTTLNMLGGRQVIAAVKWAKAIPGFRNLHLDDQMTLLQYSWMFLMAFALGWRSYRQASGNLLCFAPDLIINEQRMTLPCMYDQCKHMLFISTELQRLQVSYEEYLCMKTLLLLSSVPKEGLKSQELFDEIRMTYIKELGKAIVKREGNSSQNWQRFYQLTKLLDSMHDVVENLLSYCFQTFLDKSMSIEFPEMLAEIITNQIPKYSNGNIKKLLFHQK
Assay: Radiotracer biodistribution in intact or adrenalectomized mice
Assay type: in vivo
Details: 20 min post injection
Description: All animal experiments were conducted under the approval from Institutional Animal Care and Use Committee (IACUC) at UCSF. Male nu nu or C57BL6/J mice (4-6 weeks) purchased from Charles River. All the mice were well-housed in the USCF with free access to food and water. […] The mice were treated once daily for three days. At day 3, the mice received the radiotracer after the final gavage. Adrenalectomized mice were purchased from Charles River, and provided drinking water supplemented with NaCl (aq) per instructions.
For a broader survey of radiotracer biodistribution post mortem, mice were euthanized after radiotracer injection with CO2(g) asphyxiation and dissected at dedicated time points post injection. The blood and tissues were removed, washed, dried and weighed. The activity of each tissue was measured with a gamma counter. All data was decay corrected. PRISM software was used to express a percentage (% ID/g) of the injected dose per gram of tissue. […] Table 2 provides a tabular representation of the biodistribution data collected 30, 60, 90 minutes after injection of [18F]-YJH08 in C57B16/J mice. The data are represented as mean standard deviation of the % ID/g.
To understand if corticosteroid depletion elevated radiotracer uptake in tissues, the biodistribution of [18F]-YJH08 was compared in intact and adrenalectomized (adx) mice. The radiotracer uptake was uniformly higher in the tissues of adx mice compared to intact mice (FIG. 4C and Table 4). Overall, the extent of GR specific binding in tissues observed with [18F]-YJH08 is remarkable considering the previously reported biodistribution data for radiotracers targeting GR, including non-steroidal agonists. See, Wuest, et al. Bioorganic & medicinal chemistry letters 2007, 17 (14), 4035-9.
The P value indicates the result of an unpaired, two-tailed Student's t test between the two arms (n=4/group).
Animal Studies. All animal experiments were performed under the approval of the Institutional Animal Care and Use Committee (IACUC) at UCSF. C57BL6/J mice (4-6 weeks) were purchased from Charles River. All the mice were housed in a dedicated vivarium with free access to food and water. […] Adrenalectomized mice were purchased from Charles River and provided drinking water supplemented with NaCl (aq) per instructions until the time of the tracer biodistribution study.
Biodistribution Studies. Mice were euthanized after radiotracer (7.4-18.5 MBq in 100-150 μL) injection with CO2 (g) asphyxiation and dissected at dedicated time points post injection. The blood and tissues were collected, washed, dried, and weighed. The activity of each tissue was measured with a gamma counter. All data was decay corrected. PRISM software was used to express a percentage (% ID/g) of the injected dose per gram of tissue.
The data were collected in intact male C57B16/J mice at 20 min post injection.
Significant reductions in (±)-^11C-YJH08 tissue uptake were observed by treating mice with Dex-CD at 10 mg/kg via intraperitoneal injection 1 hour before the radiotracer injection (FIG. 7A). […] Specific binding in vivo was further studied by investigating relative tissue uptake in intact versus adrenalectomized mice (adrenalectomy depletes serum corticosteroids and elevates GR expression in tissues). […] Table 8 summarizes the biodistribution data collected 20 minutes after injection of (±)-^11C-YJH08 in intact or adrenalectomized (ADREX) mice. The P value indicates the result of an unpaired, two-tailed Student's t test between the two arms (n=4/group).

[1] = intact C57B16/J mice, listed as (±)-^18F-YJH08

With `CC1=CC(C)(C)Nc2ccc3c(c21)C(Cc1ccc(F)cc1)Oc1cccc(O[11CH3])c1-3` (racemic) [(±)-^11C-YJH08] the “radiotracer uptake, Blood” value (adrenalectomized mice) was 2.79 ± 0.54 % ID/g, the “radiotracer uptake, Bone” value (adrenalectomized mice) was 2.03 ± 0.4 % ID/g and the “radiotracer uptake, Brain” value (adrenalectomized mice) was 2.28 ± 0.46 % ID/g. For the same compound, the “radiotracer uptake, Heart” value (adrenalectomized mice) was 5.63 ± 0.94 % ID/g, the “radiotracer uptake, Kidney” value (adrenalectomized mice) was 6.88 ± 1.52 % ID/g and the “radiotracer uptake, Liver” value (adrenalectomized mice) was 15.21 ± 3.39 % ID/g. The “radiotracer uptake, Muscle” value (adrenalectomized mice) was 2.32 ± 0.5 % ID/g, the “radiotracer uptake, Spleen” value (adrenalectomized mice) was 2.88 ± 0.68 % ID/g and the “radiotracer uptake, Supraspinal BAT” value (adrenalectomized mice) was 12.01 ± 3.54 % ID/g. The “radiotracer uptake, Adrenal Gland” value (intact C57B16/J mice) was 13.88 ± 7.15 % ID/g, the “radiotracer uptake, Blood” value (intact C57B16/J mice) was 2.25 ± 0.21 % ID/g and the “radiotracer uptake, Bone” value (intact C57B16/J mice) was 1.19 ± 0.13 % ID/g. The “radiotracer uptake, Brain” value (intact C57B16/J mice) was 1.81 ± 0.17 % ID/g, the “radiotracer uptake, Heart” value (intact C57B16/J mice) was 4.47 ± 0.43 % ID/g and the “radiotracer uptake, Kidney” value (intact C57B16/J mice) was 5.82 ± 0.28 % ID/g. For the same compound, the “radiotracer uptake, Liver” value (intact C57B16/J mice) was 12.19 ± 1.22 % ID/g, the “radiotracer uptake, Muscle” value (intact C57B16/J mice) was 1.53 ± 0.13 % ID/g and the “radiotracer uptake, Spleen” value (intact C57B16/J mice) was 2.22 ± 0.33 % ID/g. For the same compound, the “radiotracer uptake, Supraspinal BAT (brown fat depot)” value (intact C57B16/J mice) was 9.8 ± 2.83 % ID/g.
`COc1cccc2c1-c1ccc3c(c1C(Cc1ccc([18F])cc1)O2)C(C)=CC(C)(C)N3` (racemic) [[18F]-YJH08, [^18F]-5-(4-fluorobenzyl)-10-methoxy-2,2,4-trimethyl-2,5-dihydro-1H-chromeno[3,4-f]quinoline] was tested, and the “radiotracer uptake, Blood” value (adrenalectomized mice) was 2.67 ± 0.1 % ID/g, the “radiotracer uptake, Bone” value (adrenalectomized mice) was 1.45 ± 0.2 % ID/g and the “radiotracer uptake, Brain” value (adrenalectomized mice) was 2.42 ± 0.1 % ID/g. For the same compound, the “radiotracer uptake, Heart” value (adrenalectomized mice) was 4.75 ± 1.0 % ID/g, the “radiotracer uptake, Kidney” value (adrenalectomized mice) was 6.91 ± 0.3 % ID/g and the “radiotracer uptake, Large intestine” value (adrenalectomized mice) was 1.34 ± 0.7 % ID/g. The “radiotracer uptake, Liver” value (adrenalectomized mice) was 13.28 ± 1.43 % ID/g, the “radiotracer uptake, Lung” value (adrenalectomized mice) was 4.35 ± 1.1 % ID/g and the “radiotracer uptake, Muscle” value (adrenalectomized mice) was 2.03 ± 0.2 % ID/g. For the same compound, the “radiotracer uptake, Pancreas” value (adrenalectomized mice) was 5.25 ± 0.4 % ID/g, the “radiotracer uptake, Small intestine” value (adrenalectomized mice) was 27.83 ± 2.89 % ID/g and the “radiotracer uptake, Spleen” value (adrenalectomized mice) was 3.25 ± 0.05 % ID/g. For the same compound, the “radiotracer uptake, Stomach” value (adrenalectomized mice) was 3.23 ± 3.57 % ID/g, the “radiotracer uptake, Supraspinal BAT” value (adrenalectomized mice) was 15.56 ± 3.8 % ID/g and the “radiotracer uptake, Adrenal Gland” value (intact C57B16/J mice) was 10.82 ± 5.9 % ID/g. For the same compound, the “radiotracer uptake, Blood” value (intact C57B16/J mice) was 2.01 ± 0.4 % ID/g, the “radiotracer uptake, Bone” value (intact C57B16/J mice) was 1.39 ± 02 % ID/g and the “radiotracer uptake, Brain” value (intact C57B16/J mice) was 1.96 ± 0.09 % ID/g. For the same compound, the “radiotracer uptake, Heart” value (intact C57B16/J mice) was 3.92 ± 0.5 % ID/g, the “radiotracer uptake, Kidney” value (intact C57B16/J mice) was 5.79 ± 1.0 % ID/g and the “radiotracer uptake, Liver” value (intact C57B16/J mice) was 10.68 ± 1.1 % ID/g. The “radiotracer uptake, Lung” value (intact C57B16/J mice) was 3.89 ± 0.7 % ID/g, the “radiotracer uptake, Muscle” value (intact C57B16/J mice) was 1.53 ± 0.1 % ID/g and the “radiotracer uptake, Pancreas” value (intact C57B16/J mice) was 4.40 ± 0.2 % ID/g. For the same compound, the “radiotracer uptake, Small intestine” value (intact C57B16/J mice) was 21.22 ± 4.1 % ID/g, the “radiotracer uptake, Spleen” value (intact C57B16/J mice) was 2.67 ± −0.5 % ID/g and the “radiotracer uptake, Stomach” value (intact C57B16/J mice) was 3.38 ± 2.8 % ID/g. For the same compound, the “radiotracer uptake, Supraspinal BAT (brown fat depot)” value (intact C57B16/J mice) was 9.01 ± 2.0 % ID/g, the “radiotracer uptake, Adrenal Gland” value [1] was 12.19 ± 6.46 % ID/g and the “radiotracer uptake, Blood” value [1] was 2.22 ± 0.14 % ID/g. For the same compound, the “radiotracer uptake, Bone” value [1] was 1.3 ± 0.23 % ID/g, the “radiotracer uptake, Brain” value [1] was 1.93 ± 0.07 % ID/g and the “radiotracer uptake, Heart” value [1] was 4.15 ± 0.31 % ID/g. The “radiotracer uptake, Kidney” value [1] was 5.79 ± 1.07 % ID/g, the “radiotracer uptake, Liver” value [1] was 11.08 ± 0.92 % ID/g and the “radiotracer uptake, Muscle” value [1] was 1.53 ± 0.12 % ID/g. For the same compound, the “radiotracer uptake, Spleen” value [1] was 2.46 ± 0.53 % ID/g and the “radiotracer uptake, Supraspinal BAT (brown fat depot)” value [1] was 9.01 ± 2.07 % ID/g.
